Measurements: patent US4532343A, “Aromatic retinoic acid analogues” (SRI International, priority 1982, dated 1985)

Experiments:
[1] = system: Hamster Tracheal Organ Culture (keratinization); assay: tracheal organ culture assay (reversal of keratinization in hamster tracheal organ culture); assay type: cell-based; details: for Reversal of Keratinization in Hamster Tracheal Organ Culture, Active/Total Cultures: active = neither keratin nor keratohyaline granules seen, or keratohyaline granules alone absent; for Reversal of Keratinization in Hamster Tracheal Organ Culture, Active/Total Cultures (%): percent of active cultures
Protocol: (§1) The ODC assay measures a compound's ability to prevent the induction of ODC. The tracheal organ culture assay measures a compound's ability to reverse keratinization.
The tracheal organ culture assay is carried out as follows. Tracheas are taken from hamsters that are in very early stages of vitamin A deficiency and placed in organ culture. At the time of culture, the animals are still gaining weight; the tracheal epithelium is generally low columnar or cuboidal, with only occasional patches of squamous metaplasia. Each trachea is opened from the larynx to the carina along the membranous dorsal wall and cultured in a serum-free medium (CMRL-1066; with crystalline bovine insulin, 0.1 μg/ml; hydrocortisone hemisuccinate, 0.1 μg/ml; glutamine, 2 mM; penicillin, 100 units/ml; and streptomycin,100 μg/ml, added). Cultures are gassed with 50% oxygen, 45% nitrogen, and 5% CO2. The culture dishes are rocked at 35.5-36.0 degrees to allow the tracheas contact with both gas and medium. All tracheas are grown in medium containing no retinoid for the first 3 days. At the end of 3 days, some tracheas are harvested; almost all of these tracheas have significant squamous metaplasia, and approximately 60% have keratinized lesions. The remaining tracheas are then divided into different groups which are treated with either: (1) retinoid dissolved in dimethylsulfoxide (final concentration of DMSO in culture medium is never greater than 0.1%) or (2) an equivalent amount of DMSO alone. Culture medium is changed three times a week, and all of the remaining tracheas are harvested at the end of 10 days in culture. Tracheas are fixed in 10% buffered formalin and embedded in paraffin. Cross sections of five micrometers are made through the mid-portion, stained with hematoxylin and eosin, and then scored with a microscope for the presence of keratin and keratohyaline granules, both of which are found in approximately 90% of control cultures that received no retinoid for the entire 10 day culture period.

[2] = system: Ornithine Decarboxylase; assay: ornithine decarboxylase (ODC) assay: inhibition of induction of ODC by 12-O-tetradecanoylphorbol-13-acetate in mouse skin; assay type: in vivo, mouse (female Charles River CD-1); details: topical, 1 hour before TPA (17 nmol)
Protocol: as §1
The ODC assay is carried out as follows. Female Charles River CD-1 mice from Charles River Breeding Laboratories, Wilmington, Massachusetts, are used (age 7 to 9 weeks). The dorsal hair of the mice is shaved 1 to 2 days before testing, and only mice showing no hair regrowth are used. A single dose of 12-O-tetradecanoylphorbol-13-acetate (TPA) (10.5 μg, 17 nmol) in 0.2 mL of acetone is applied topically to the back of each mouse. The test compound, at one of three dose levels (1.7, 17 and 170 nmol), dissolved in 0.2 mL of acetone is applied 1 hour before the TPA treatment to the test groups; the control group is treated with acetone alone. The mice are killed by cervical dislocation five hours after TPA treatment. Determinations are done in triplicate.
The epidermis is obtained from the sacrificed animals. To obtain sufficient material, the dorsal skins from 2 to 3 mice in each treatment group are pooled. The depilatory agent Nudit® (Helena Rubinstein, New York) is applied to the shaved area of the skin; after 5 minutes, it is washed off thoroughly with cold tap water. Then the skin is excised and plunged immediately into ice-cold water; it is then placed in a 55° C. water bath for 30 seconds and reimmersed in ice-cold water for at least another 30 seconds. The skin is placed epidermis side up on a cold plate, and the epidermis is scraped off with a razor blade. The pooled epidermal sheets are homogenized (Polytron PT-10 homogenizer) at 0° to 4° C. for 15-20 seconds in 50 mM sodium phosphate and 0.1 mM ethylenediaminetetraacetic acid (EDTA), at a volume of 1 mL/skin.
The supernatant fraction remaining after centrifugation of the homogenate at 10,000× g for 30 seconds at 0° C. is used for the enzyme assay. Enzyme activity is determined using the microassay for ODC as described by Verma and Boutwell to measure the release of ^14 CO2 from DL-[1-^14 C]-ornithine (58 mCi/mmol) after incubation with the 10,000× g supernatant. The incubations are carried out by decanting, with a Pasteur pipette, 100 μL of the supernatant containing 100 to 120 μg of protein into two or three 15-mL Corex tubes in a shaking water bath at 37° C. The assay mixture in the tubes consists of 50 μL of 100 mM sodium phosphate buffer (pH 7.2), 10 μL of 4 mM pyridoxal phosphate, 40 μL of 25 mM dithiothreitol, and 1 μL of 0.1 M EDTA. The center wells in the tubes are filled with 200 μL of a 2:1 solution (v/v) of ethanolamine:2-methoxyethanol. The reaction is started by adding 50 μL of substrate (0.5 μCi of DL-[1-^14 C]-ornithine in 2 mM cold ornithine) at 1-minute intervals by injection to each of the stoppered tubes. Incubations are routinely carried out at 37° C. for 30 to 60 minutes. The reaction is stopped by addition of 0.5 ml of 2 M citric acid, and incubation is continued for an additional hour without heating to ensure complete absorption of ^14 CO2.
Radioactivity is measured using a toluene-based scintillant (4 g of PPO and 50 mg of POPOP/L of toluene) in a Beckman LS-250 liquid scintillation counter. Enzyme activity is determined in triplicate and expressed as nanomoles of CO2 released in 30 minutes per milligram of protein. Enzyme activity is linear for the protein concentration used. The protein concentrations of the epidermal extracts are determined by the Lowry procedure, using bovine serum albumin as the standard.

| Structure (SMILES) | Reversal of Keratinization in Hamster Tracheal Organ Culture, Active/Total Cultures ([1]; Conc 10^-8 M) | Reversal of Keratinization in Hamster Tracheal Organ Culture, Active/Total Cultures (%) ([1]; Conc 10^-8 M) | Reversal of Keratinization in Hamster Tracheal Organ Culture, Active/Total Cultures ([1]; Conc 10^-9 M) | Reversal of Keratinization in Hamster Tracheal Organ Culture, Active/Total Cultures (%) ([1]; Conc 10^-9 M) | Reversal of Keratinization in Hamster Tracheal Organ Culture, Active/Total Cultures ([1]; Conc 10^-10 M) | Reversal of Keratinization in Hamster Tracheal Organ Culture, Active/Total Cultures (%) ([1]; Conc 10^-10 M) | Inhibition of Induction of Ornithine Decarboxylase by 12-O-Tetradecanoylphorbol-13-acetate in Mouse Skin, % Inhibition of Control ([2]; Dose 1.7 nmol) [%] | Inhibition of Induction of Ornithine Decarboxylase by 12-O-Tetradecanoylphorbol-13-acetate in Mouse Skin, % Inhibition of Control ([2]; Dose 17 nmol) [%] |
| --- | --- | --- | --- | --- | --- | --- | --- | --- |
| CCOC(=O)c1ccc(/C(F)=C(C)/C=C/C2=C(C)CCCC2(C)C)cc1 [Example 1, (1Z,3E)-1-(4-carbethoxyphenyl)-1-fluoro-2-methyl-4-(2,6,6-trimethyl-1-cyclohexen-1-yl)-1,3-butadiene] | 11/12 | 92 | 10/12 | 83 | 6/13 | 46 | 56 | 82 |
| CC1=C(/C=C/C(C)=C(\F)c2ccc(C(=O)O)cc2)C(C)(C)CCC1 [Example 2, (1Z,3E)-1-(4-Carboxyphenyl)-1-fluoro-2-methyl-4-(2,6,6-trimethyl-1-cyclohexen-1-yl)-1,3-butadiene] | 13/13 | 100 | 12/13 | 92 | 5/13 | 38 | 70 | 80 |
| CC1=C(/C=C/C(C)=C/c2ccc(C(=O)O)cc2F)C(C)(C)CCC1 [Example 6, (E)-1-(4-Carboxy-2-fluorophenyl)-2-methyl-4-(2,6,6-trimethyl-1-cyclohexen-1-yl)-1,3-butadiene] | 6/6 | 100 | 12/12 | 100 | 3/11 | 27 | 37 | 78 |
| CCOC(=O)c1ccc(/C=C(C)/C=C/C2=C(C)CCCC2(C)C)c(OC)c1 [Example 3, (E)-1-(4-carbethoxy-2-methoxyphenyl)-2-methyl-4-(2,6,6-trimethyl-1-cyclohexen-1-yl)-1,3-butadiene] | 7/7 | 100 | 5/7 | 71 | 4/7 | 57 | 21 | 39 |
| CCOC(=O)c1ccc(/C=C(C)/C=C/C2=C(C)CCCC2(C)C)c(F)c1 [Example 5, (E)-1-(4-Carbethoxy-2-fluorophenyl)-2-methyl-4-(2,6,6-trimethyl-1-cyclohexen-1-yl)-1,3-butadiene] | 6/6 | 100 | 6/7 | 86 | 4/7 | 56 | 8 | 46 |
